Data on 2 compounds can be found in patent US20130209581A1, “IODINATED ACTIVATED CHARCOAL FOR TREATING SYMPTOMS OF DEPRESSION” (priority 2010, published 2013).

Molecules are shown by their SMILES.

Data set [1] concerns animals suffering from the effects of iodine toxicity. Particulars: animals (chicks) with iodine toxicity; cited from earlier work.
A further data set deals with healthy volunteers. The settings on record: humans, cited from earlier work.
The subject of data set [2] is symptoms caused by depression. As to the kind of experiment: Self-administration of iodinated activated charcoal and its separate components by one patient with long-standing depression symptoms, with daily symptom recording and a Quality of life questionnaire. The class given is in vivo, human. The settings on record: 90 mg daily in a capsule, after 2 weeks. Here is the method: A person, has for some 20 years suffered from many symptoms, including chronic and severe mental fatigue in spite of 12 h sleep per night, psychological burnout, anxiety, lack of concentration, depressive mood, withdrawal from social situations, irritable bowel symptoms with constipation and/or diarrhea, anxiety, heart palpitations, pressure in the chest, reduced stamina and condition and a reduced sex drive. When asked to evaluate their subjective health status using a Quality of life questionnaire with a 1-10 scale where 1 is the worst possible and 10 is absolutely the best, they regularly marked 1 or 2. Their symptoms were interpreted as caused by depression, and they were treated with 5 different types of anti-depressants for a total of 17 years.
Some time ago, they tested the mercury binding substance iodinated activated charcoal (IAC, custom made at PharmaLundensis according to Example 1). They took 1 g per day of IAC for two weeks, and recorded the symptoms they experienced daily, as well as filling in a Quality of life questionnaire. […] They felt better than they had felt for many years.
After these two weeks, they wanted to clarify if the massive improvement in their health was caused by the IAC. […]

Consider `[Br-].[Na+]` [Sodium bromide, sodium bromide], for which the “effect on symptoms of iodine toxicity” value in data set [1] is “helps to reverse the symptoms”. In addition, in the data set with healthy volunteers (healthy volunteers), the no-effect level is given as 4 mg/kg body weight. In addition, in the data set with healthy volunteers, the tolerability result was “well tolerated”.

Consider `II` [elemental iodine], for which, in data set [2], the “Quality of life score” value is recorded as “as bad as when they started taking the iodine capsules” and the improvement of symptoms entry is on record as “no improvements”.
